From article PMC7516806, “Hybrid Antimicrobial Peptide Targeting Staphylococcus aureus and Displaying Anti-infective Activity in a Murine Model” (Frontiers in Microbiology, 2020)
Positions of bridges follow the written chain, without caps; N, C: chain ends. Residues, ends and D or L forms follow the SMILES beside them.

How the values were obtained:
[1] = test system: Staphylococcus aureus 29213; assay: Bacterial resistance development, serial passaging; type: cell-based; settings: serial passage at sub-MIC for 15 days
Text: Staphylococcus aureus 29213 was employed to assess the development of resistance by the serial passaging method, as previously described ([Lyu et al., 2017]). Minimum inhibitory concentration testing was first conducted for all of the compounds to be tested, as described above. S. aureus was harvested from 96-well plates of sub-MIC levels, diluted in MHB to a concentration of 2–7 × 10^5 CFU/mL, and then subjected to MIC determination for up to 15 days. The change in MIC values determines the development of antibiotic resistance in S. aureus.

[2] = test system: E. coli 25922; assay: MIC, modified microtiter dilution; type: cell-based, Escherichia coli; settings: MHB, 2–7 × 10^5 CFU/ml, 37°C, 24 h, lowest concentration with no turbidity, at least three independent repeats
Text: (§1) The experiment was repeated at least three times independently.

[3] = test system: E. coli UB1005; assay: MIC, modified microtiter dilution; type: cell-based, Escherichia coli; settings: MHB, 2–7 × 10^5 CFU/ml, 37°C, 24 h, no turbidity, at least three independent repeats
Text: as §1

[4] = test system: E. coli K88; settings: MHB, 2–7 × 10^5 CFU/ml, 37°C, 24 h, no turbidity, at least three independent repeats
Text: (§2) The bacterial strains Escherichia coli (E. coli) ATCC 25922, E. coli K88, E. coli K99, Pseudomonas aeruginosa (P. aeruginosa) ATCC 27853, Escherichia coli (E. coli) UB1005, Salmonella typhimurium 14028, Salmonella pullorum (S. pullorum) C7913, S. typhimurium C7731, S. aureus ATCC 29213, MRSA ATCC 43300, and S. aureus ATCC 25923 were obtained from the College of Veterinary Medicine, Northeast Agricultural University, China. Lactobacillus plantarum (L. plantarum) 8014, Lactobacillus rhamnosus (L. rhamnosus) 7469, L. rhamnosus 1.0911, L. rhamnosus 1.0936, and L. rhamnosus 1.0385 were obtained from the Key Laboratory of Food College, Northeast Agricultural University, China.
(§3) As in a previous study, the antimicrobial activities of the AMPs were investigated using a modified standard microtiter dilution method ([Dong et al., 2014]). The peptides were serially diluted with a solution containing 0.01% acetic acid and 0.2% bovine serum albumin (BSA, Sigma) in 96-well plates. The bacteria grew to the mid-log phase and then were dissolved in MHB at concentration of 2–7 × 10^5 CFU/ml. The peptides and bacterial solution were mixed in equal volume in a 37°C incubator for 24 h. […] Mueller-Hinton broth with microorganisms was used as the positive control, and the pure broth was used as the negative control. The experiment was repeated at least three times independently.

[5] = test system: E. coli K99; settings: MHB, 2–7 × 10^5 CFU/ml, 37°C, 24 h, no turbidity, at least three independent repeats
Text: as §2, §3

[6] = test system: S. typhimurium 14028; assay: MIC, modified microtiter dilution; type: cell-based, Salmonella typhimurium; settings: MHB, 2–7 × 10^5 CFU/ml, 37°C, 24 h, no turbidity, at least three independent repeats
Text: as §1

[7] = test system: S. typhimurium 7731; assay: MIC, modified microtiter dilution; type: cell-based, Salmonella typhimurium; settings: MHB, 2–7 × 10^5 CFU/ml, 37°C, 24 h, no turbidity, at least three independent repeats
Text: as §1

[8] = test system: S. pullorum 7913; assay: MIC, modified microtiter dilution; type: cell-based, Salmonella pullorum; settings: MHB, 2–7 × 10^5 CFU/ml, 37°C, 24 h, no turbidity, at least three independent repeats
Text: as §1

[9] = test system: P. aeruginosa 27853; assay: MIC, modified microtiter dilution; type: cell-based, Pseudomonas aeruginosa; settings: MHB, 2–7 × 10^5 CFU/ml, 37°C, 24 h, no turbidity, at least three independent repeats
Text: as §1

[10] = test system: S. aureus 25923; assay: MIC, modified microtiter dilution; type: cell-based, Staphylococcus aureus; settings: MHB, 2–7 × 10^5 CFU/ml, 37°C, 24 h, no turbidity, at least three independent repeats
Text: as §1

[11] = test system: S. aureus 29213; assay: MIC, modified microtiter dilution; type: cell-based, Staphylococcus aureus; settings: MHB, 2–7 × 10^5 CFU/ml, 37°C, 24 h, no turbidity, at least three independent repeats
Text: as §1

[12] = test system: MRSA 43300; type: cell-based, Staphylococcus aureus; settings: MHB, 2–7 × 10^5 CFU/ml, 37°C, 24 h, no turbidity, at least three independent repeats
Text: as §1

[13] = test system: L. plantarum 8014; assay: MIC, modified microtiter dilution; type: cell-based, Lactobacillus plantarum; settings: 2–7 × 10^5 CFU/ml, 37°C, 24 h, no turbidity, at least three independent repeats
Text: as §1

[14] = test system: L. rhamnosus 1.0385; assay: MIC, modified microtiter dilution; type: cell-based, Lactobacillus rhamnosus; settings: 2–7 × 10^5 CFU/ml, 37°C, 24 h, no turbidity, at least three independent repeats
Text: as §1

[15] = test system: L. rhamnosus 1.0911; assay: MIC, modified microtiter dilution; type: cell-based, Lactobacillus rhamnosus; settings: 2–7 × 10^5 CFU/ml, 37°C, 24 h, no turbidity, at least three independent repeats
Text: as §1

[16] = test system: L. rhamnosus 1.0936; assay: MIC, modified microtiter dilution; type: cell-based, Lactobacillus rhamnosus; settings: 2–7 × 10^5 CFU/ml, 37°C, 24 h, no turbidity, at least three independent repeats
Text: as §1

[17] = test system: L. rhamnosus 7469; assay: MIC, modified microtiter dilution; type: cell-based, Lactobacillus rhamnosus; settings: 2–7 × 10^5 CFU/ml, 37°C, 24 h, no turbidity, at least three independent repeats
Text: as §1

[18] = test system: S. aureus 29213; assay: MIC in the presence of physiological salts; type: cell-based, Staphylococcus aureus; settings: three independent repeats, unit not given in Table 4
Experimental: as §1
The MIC of peptides was determined in the presence of salts at physiological concentrations (150 mM NaCl, 4.5 mM KCl, 6 μM NH4Cl, 8 μM ZnCl2, 1 mM MgCl2, 2 mM CaCl2, and 4 μM FeCl3) as described previously ([Dong et al., 2014]). All experiments were performed three times independently.

[19] = test system: panel of bacterial species; assay: MIC against a panel of bacterial species (summary statements); type: cell-based; settings: all tested bacteria, up to the highest concentration measured
Text: as §1

[20] = test system: RAW 264.7 cells; assay: Cytotoxicity, MTT dye reduction assay; type: cell-based, murine; settings: highest concentration of 128 μM, 4 h, three independent repeats
Experimental: The cytotoxicity of peptides was determined by healthy human erythrocytes and the murine macrophage cell line RAW 264.7 via a hemolysis assay and MTT dye reduction assay, respectively ([Wang et al., 2018]). In the hemolysis assay, fresh hRBCs from healthy people were centrifuged for 5 min at 1,000 × g and then washed three times with PBS (pH = 7.2). The 100 μL erythrocyte suspension and peptides were incubated for 1.5 h in an incubator at 37°C. The 96-well plates were centrifuged at 1,000 × g for 5 min, and the supernatants were carefully aspirated. The absorbance at 570 nm indicated the leakage of hemoglobin. The hRBCs in the PBS sample was used as the negative control, and 0.1% Triton X-100 addition served as the positive control. In the MTT dye reduction assay, 1.0–2.0 × 10^5 cells were plated in 96-well plates and then treated with various concentrations of peptides for 4 h at 37°C in a 5% CO2 incubator. Subsequently, 50 μL of MTT was added to the plated cells at a final concentration of 0.5 mg/mL and incubated for 4 h. Then, the cells were centrifuged at 1000 × g for 5 min, and the supernatants were discarded. Formazan crystals were dissolved in 150 μL of DMSO, and the OD570 nm was measured using a microplate reader (TECAN GENios F129004; TECAN, Austria). The experiment was repeated three times independently.

In the case of penicillin [reference compound], the “change in MIC value, 15th day versus first day” value [1] is reported as 16 fold.

In the case of C[C@H](NC(=O)[C@H](C)NC(=O)[C@H](Cc1c[nH]c2ccccc12)NC(=O)[C@H](Cc1c[nH]c2ccccc12)NC(=O)[C@H](Cc1c[nH]c2ccccc12)NC(=O)[C@H](CCCNC(=N)N)NC(=O)[C@@H]1CSSC[C@H](N)C(=O)N[C@@H](C)C(=O)N[C@@H](CO)C(=O)N[C@@H](Cc2ccc(O)cc2)C(=O)N[C@@H](Cc2ccccc2)C(=O)N1)C(N)=O [Peptide S3] (H-CASYFCRWWWAA-NH2; disulfide 1-6; N-terminus assumed), the “MIC E. coli 25922” value [2] is reported as over 64 µM, the “MIC E. coli UB1005” value [3] is reported as over 64 µM and the “MIC E. coli K88” value [4] is reported as over 64 µM. For the same compound, the “MIC E. coli K99” value [5] was over 64 µM, the “MIC S. typhimurium 14028” value [6] was over 64 µM and the “MIC S. typhimurium 7731” value [7] was over 64 µM. The “MIC S. pullorum 7913” value [8] was over 64 µM, the “MIC P. aeruginosa 27853” value [9] was over 64 µM and the “MIC S. aureus 25923” value [10] was over 64 µM. The “MIC S. aureus 29213” value [11] was over 64 µM, the “MIC MRSA 43300” value [12] was over 64 µM and the “MIC L. plantarum 8014” value [13] was over 64 µM. The “MIC L. rhamnosus 1.0385” value [14] was over 64 µM, the “MIC L. rhamnosus 1.0911” value [15] was over 64 µM and the “MIC L. rhamnosus 1.0936” value [16] was over 64 µM. For the same compound, the “MIC L. rhamnosus 7469” value [17] was over 64 µM, the “MIC against S. aureus 29213, FeCl3” value ([18]; 4 μM FeCl3) was over 64 µM and the “MIC against S. aureus 29213, NH4Cl” value ([18]; 6 μM NH4Cl) was over 64 µM. The “MIC against S. aureus 29213, ZnCl2” value ([18]; 8 μM ZnCl2) was over 64 µM, the “MIC against S. aureus 29213, MgCl2” value ([18]; 1 mM MgCl2) was over 64 µM and the “MIC against S. aureus 29213, CaCl2” value ([18]; 2 mM CaCl2) was over 64 µM. The “MIC against S. aureus 29213, KCl” value ([18]; 4.5 mM KCl) was over 64 µM, the “MIC against S. aureus 29213, NaCl” value ([18]; 150 mM NaCl) was over 64 µM and the “antimicrobial activity against the tested microorganisms” value [19] was “failed to show antimicrobial activity”. The “RAW 264.7 cell survival rate” value [20] was 84%.
